Laboratory results published in patent publication US8367677B2, “Non-glycosylated/non-glycosidic/non-peptidic small molecule PSGL-1 mimetics for the treatment of inflammatory disorders” (Revotar Biopharmaceuticals AG, priority 2004, dated 2013).

Experiments:
[1] = target: T1, human E-Selectin-IgG-chimera (Homo sapiens, UniProt P16581); assay: Sialyl Lewis x Tyrosine Sulfate Assay (sLex TSA), E-selectin; assay type: binding; settings: for inhibition at 100 µM / E-Selectin [% Inhib.]: compound at 100 μM; for inhibition at 100 µM: read-out: E-Selectin [% Inhib.]
T1 construct: fused on or other part: human IgG Fc part, a tag and dimerising handle that is captured by the goat anti-human Fc antibody on the plate
T1 sequence (P16581 22-175 limits assumed): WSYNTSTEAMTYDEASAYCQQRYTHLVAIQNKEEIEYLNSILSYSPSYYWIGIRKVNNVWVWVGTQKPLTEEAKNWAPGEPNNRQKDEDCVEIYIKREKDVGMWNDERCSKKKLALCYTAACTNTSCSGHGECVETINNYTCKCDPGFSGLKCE
Description: (§1) Compounds of the present invention are assayed on a molecular level for their ability to inhibit the binding of P-, L-, or E-selectin chimeric molecules to sLe^x and tyrosinesulfate residues linked to a polymeric matrix as a PSGL-1 substitute.
(§2) Microtiter plates are coated overnight in carbonate buffer pH9.6 with goat anti human Fc mAB (10 μg/ml). After washing in assay buffer (25 mM 4-(2-hydroxyethyl)-1-piperazineethanesulfonic acid (HEPES), 150 mM NaCl, 1 mM CaCl2 pH7.4) and blocking (3% bovine serum albumin (BSA) in assay buffer) plates are incubated for 2 h at 37° C. with human P-Selectin-IgG-chimera (0.61 nM respectively 150 ng/mL) or human L-Selectin-IgG-chimera (0.61 nM respectively 89 ng/mL) or human E-Selectin-IgG-chimera (0.61 nM respectively 131 ng/mL). 5 μl of sLe^x-tyrosine sulfate polyacrylamide (1 mg/ml) carrying 15% sLe^x, 10% Tyrosine-sulfate and 5% biotin is complexed with 20 μl Streptavidin-Peroxidase solution (1 mg/ml) and 25 μl assay buffer without CaCl2. For use in the assay, the ligand complex is diluted 1:10000 in assay buffer and further diluted 1:1 with varying amounts of compounds in assay buffer incl. 2% DMSO. This mixture is added to the wells precoated with E- or P-selectin. After incubation for 2 h at 37° C., wells are washed for six times with in assay buffer incl. 0.005% Polyoxyethylenesorbitan monolaurate (TWEEN 20), developed for 10-15 min with 20 μl 3,3′,5,5′-tetramethylbenzidine (TMB)/H2O2 substrate solution and stopped with 20 μl […]. Bound sLe^x-Tyrosine sulfate ligand complex is determined by measuring optical density at 450 nm vs. 620 nm in a Fusion alpha-FP reader (sold from Packard Bioscience, Dreieich, Germany).

[2] = target: T2, human L-Selectin-IgG-chimera (Homo sapiens, UniProt P14151); assay: Sialyl Lewis x Tyrosine Sulfate Assay (sLex TSA), L-selectin; assay type: binding; settings: for inhibition at 100 µM / L-Selectin [% Inhib.]: compound at 100 μM; for inhibition at 100 µM: read-out: L-Selectin [% Inhib.]
T2 construct: fused on or other part: human IgG Fc part, a tag and dimerising handle that is captured by the goat anti-human Fc antibody on the plate
T2 sequence (P14151 39-318 limits assumed): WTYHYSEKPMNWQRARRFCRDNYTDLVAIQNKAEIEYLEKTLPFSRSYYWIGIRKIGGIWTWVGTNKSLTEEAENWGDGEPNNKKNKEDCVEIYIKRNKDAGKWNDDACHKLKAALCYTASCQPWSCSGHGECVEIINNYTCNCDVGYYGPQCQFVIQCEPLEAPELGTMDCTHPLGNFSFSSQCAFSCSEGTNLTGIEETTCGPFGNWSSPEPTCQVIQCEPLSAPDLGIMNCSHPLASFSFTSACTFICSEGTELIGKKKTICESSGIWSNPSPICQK
Description: as §1, §2

[3] = target: T3, human P-Selectin-IgG-chimera (Homo sapiens, UniProt P16109); assay: Sialyl Lewis x Tyrosine Sulfate Assay (sLex TSA), P-selectin; assay type: binding; settings: for inhibition at 100 µM / P-Selectin [% Inhib.]: compound at 100 μM; for inhibition at 100 µM: read-out: P-Selectin [% Inhib.]
T3 sequence (P16109 42-771 limits assumed): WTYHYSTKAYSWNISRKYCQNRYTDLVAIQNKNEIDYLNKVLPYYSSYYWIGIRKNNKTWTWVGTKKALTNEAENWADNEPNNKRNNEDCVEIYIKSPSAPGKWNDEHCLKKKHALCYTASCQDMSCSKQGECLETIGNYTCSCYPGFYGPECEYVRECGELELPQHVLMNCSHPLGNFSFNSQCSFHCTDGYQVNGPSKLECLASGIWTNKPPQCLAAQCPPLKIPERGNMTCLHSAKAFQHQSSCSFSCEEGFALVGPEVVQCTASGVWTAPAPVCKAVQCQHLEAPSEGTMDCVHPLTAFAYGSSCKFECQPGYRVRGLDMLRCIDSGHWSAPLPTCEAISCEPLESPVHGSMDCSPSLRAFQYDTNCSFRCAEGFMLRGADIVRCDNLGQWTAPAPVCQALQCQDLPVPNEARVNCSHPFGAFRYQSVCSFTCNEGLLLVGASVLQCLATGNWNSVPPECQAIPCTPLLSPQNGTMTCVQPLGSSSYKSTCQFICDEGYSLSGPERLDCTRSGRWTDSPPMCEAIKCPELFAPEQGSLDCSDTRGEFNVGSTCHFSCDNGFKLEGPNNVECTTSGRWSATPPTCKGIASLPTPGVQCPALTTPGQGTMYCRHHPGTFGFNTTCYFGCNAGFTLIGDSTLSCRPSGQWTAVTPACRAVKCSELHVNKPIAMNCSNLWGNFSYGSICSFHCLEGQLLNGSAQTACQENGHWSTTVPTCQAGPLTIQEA
Description: as §1, §2

[4] = Parallel Artificial Membrane Permeation Assay (PAMPA); assay type: in vitro ADME; settings: 16 hours, room temperature
Description: The test compounds are dissolved at 10 mM in DMSO and diluted to 500 μM with PBS pH 7.4 or pH 4.0, respectively resulting in ‘donor solutions’. For use as an artificial membrane, a 1% solution of lecithin (w/v) in dodecane is prepared and sonicated. Then, 5 μl of the lecithin/dodecane mixture are carefully pipetted into each donor plate well. Immediately after the application of the artificial membrane, 150 μl of drug containing donor solutions are added to each well of the donor plate. Each well of the acceptor plate is filled with 300 μl buffer (PBS with 5% DMSO at pH 7.4 or pH 4.0, respectively) and the drug-filled donor plate is placed onto the acceptor plate, making sure the membrane is in contact with the buffer. After replacement of the lid, the assembled plates are transferred into a sealed box equipped with a moistured towel and incubated at room temperature for 16 hours. Then, the wells of the acceptor plate are analyzed with LC/MS.

Row | Structure (SMILES) | inhibition at 100 µM [1] [%] | inhibition at 100 µM [2] [%] | inhibition at 100 µM [3] [%] | [% flux] at pH 4.0 ([4]; pH 4.0, 500 μM donor) [%] | [% flux] at pH 7.4 ([4]; pH 7.4, 500 μM donor) [%] | IC50 [1] [µM] | IC50 [2] [µM] | IC50 [3] [µM] | E-Selectin [% Inhib.] [1] [%] | L-Selectin [% Inhib.] [2] [%] | P-Selectin [% Inhib.] [3] [%]
1 | COC(=O)Cc1cccc(-c2ccccc2NC(=O)CCc2cc(O)c(O)c(O)c2)c1 [Compound 73, {2′-[3-(3,4,5-Trihydroxy-phenyl)-propionylamino]-biphenyl-3-yl}-acetic acid methyl ester] | 54 | 88 | 84 |  |  |  |  |  |  |  | 
2 | COC(=O)c1ccccc1NC(=O)Cc1ccc(O)c(O)c1O [Compound 93] | 20 | 63 | 68 | 0 | 17 |  |  |  |  |  | 
3 | O=C(O)Cc1cccc(-c2ccccc2NC(=O)Cc2cc(O)c(O)c(O)c2)c1 [Compound 94] | 79 | 76 | 78 |  |  | 4.9 | 8.7 | 4.2 |  |  | 
4 | O=C(O)Cc1cccc(-c2ccccc2NC(=O)CCc2cc(O)c(O)c(O)c2)c1 [Compound 95] |  |  |  |  |  |  |  |  | 89 | 81 | 90
5 | O=C(Cc1cc(O)c(O)c(O)c1)Nc1cccc(C(=O)O)c1 [Compound 96] | 63 | 73 | 86 |  |  | 0.8 | 1.4 | 1.1 |  |  | 
6 | O=C(O)Cc1cccc(NC(=O)Cc2cc(O)c(O)c(O)c2)c1 [Compound 98] | 58 | 52 | 57 |  |  | 1 |  | 2.1 |  |  | 
7 | O=C(Cc1ccc(O)c(O)c1O)NCC1CCC(C(=O)O)CC1 (stereo not drawn) [Compound 100] |  |  |  |  |  |  |  |  | 21 | 27 | 40
8 | O=C(O)Cc1ccc(-c2ccccc2NC(=O)Cc2cc(O)c(O)c(O)c2)s1 [Compound 103] |  |  |  |  |  |  |  |  | 68 | 81 | 87
9 | O=C(Cc1cc(O)c(O)c(O)c1)NCC1CCC(C(=O)O)CC1 (stereo not drawn) [Compound 104] | 67 | 62 | 67 |  |  | 3 | 3.3 | 2.8 |  |  | 
10 | O=C(CCc1cc(O)c(O)c(O)c1)NCC1CCC(C(=O)O)CC1 (stereo not drawn) [Compound 105] | 90 | 84 | 86 |  |  | 3.1 | 5.7 | 3.4 |  |  | 
11 | O=C(O)Cc1ccc(-c2ccccc2NC(=O)CCc2ccc(O)c(O)c2O)s1 [Compound 106] |  |  |  |  |  |  |  |  | 52 | 85 | 94
12 | Cc1ccc(C(=O)O)cc1NC(=O)Cc1cc(O)c(O)c(O)c1 [Compound 107] |  |  |  |  |  |  |  |  | 53 | 75 | 87
13 | Cc1ccc(C(=O)O)cc1NC(=O)CCc1cc(O)c(O)c(O)c1 [Compound 108] | 85 | 84 | 86 |  |  | 1.3 | 1.8 | 1.7 |  |  | 
14 | O=C(O)Cc1cccc(NC(=O)CCc2cc(O)c(O)c(O)c2)c1 [Compound 109] | 82 | 72 | 73 |  |  | 2.3 |  |  |  |  | 
15 | O=C(CCc1cc(O)c(O)c(O)c1)Nc1cccc(C(=O)O)c1 [Compound 110] |  |  |  |  |  |  |  |  | 96 | 92 | 96
16 | O=C(Cc1ccc(O)c(O)c1O)Nc1cccc(C(=O)O)c1 [Compound 111] | 46 | 97 | 99 |  |  | 0.6 | 7 | 2.1 |  |  | 
17 | O=C(O)Cc1cccc(NC(=O)Cc2ccc(O)c(O)c2O)c1 [Compound 112] | 38 | 83 | 97 |  |  |  | 16 | 7.4 |  |  | 
18 | Cc1c(NC(=O)Cc2ccc(O)c(O)c2O)cccc1C(=O)O [Compound 113] |  |  |  |  |  |  |  |  | 42 | 48 | 73
19 | O=C(CCc1ccc(O)c(O)c1O)Nc1cccc(C(=O)O)c1 [Compound 114] |  |  |  |  |  |  |  |  | 38 | 95 | 99
20 | Cc1c(NC(=O)CCc2ccc(O)c(O)c2O)cccc1C(=O)O [Compound 115] |  |  |  |  |  |  |  |  |  | 88 | 89
21 | Cc1ccc(C(=O)O)cc1NC(=O)CCc1ccc(O)c(O)c1O [Compound 116] | 92 | 87 | 88 |  |  | 7.3 | 15 | 13 |  |  | 
22 | Cc1c(NC(=O)CCc2cc(O)c(O)c(O)c2)cccc1C(=O)O [Compound 117] | 94 | 89 | 86 |  |  | 8.4 | 109 | 21.7 |  |  | 
23 | O=C(Cc1ccc(O)c(O)c1O)NCc1ccc(C(=O)O)cc1 [Compound 119] |  |  |  |  |  |  |  |  | 14 | 55 | 82
